{"source": "patent US20120251551A1", "about": "“Substituted (Heteroarylmethyl)thiohydantoins” (BAYER PHARMA AKTIENGESELLSCHAFT, priority 2009, published 2012)", "key": {"[1]": {"target": "T1, human androgen receptor W741L mutant (Homo sapiens, UniProt P10275, W742L)", "T1 construct": "expressed in transfected cells; host or cells: PC-3 cells, transient transfection with a pSG5-derived plasmid", "T1 sequence (P10275 1-920 W742L)": "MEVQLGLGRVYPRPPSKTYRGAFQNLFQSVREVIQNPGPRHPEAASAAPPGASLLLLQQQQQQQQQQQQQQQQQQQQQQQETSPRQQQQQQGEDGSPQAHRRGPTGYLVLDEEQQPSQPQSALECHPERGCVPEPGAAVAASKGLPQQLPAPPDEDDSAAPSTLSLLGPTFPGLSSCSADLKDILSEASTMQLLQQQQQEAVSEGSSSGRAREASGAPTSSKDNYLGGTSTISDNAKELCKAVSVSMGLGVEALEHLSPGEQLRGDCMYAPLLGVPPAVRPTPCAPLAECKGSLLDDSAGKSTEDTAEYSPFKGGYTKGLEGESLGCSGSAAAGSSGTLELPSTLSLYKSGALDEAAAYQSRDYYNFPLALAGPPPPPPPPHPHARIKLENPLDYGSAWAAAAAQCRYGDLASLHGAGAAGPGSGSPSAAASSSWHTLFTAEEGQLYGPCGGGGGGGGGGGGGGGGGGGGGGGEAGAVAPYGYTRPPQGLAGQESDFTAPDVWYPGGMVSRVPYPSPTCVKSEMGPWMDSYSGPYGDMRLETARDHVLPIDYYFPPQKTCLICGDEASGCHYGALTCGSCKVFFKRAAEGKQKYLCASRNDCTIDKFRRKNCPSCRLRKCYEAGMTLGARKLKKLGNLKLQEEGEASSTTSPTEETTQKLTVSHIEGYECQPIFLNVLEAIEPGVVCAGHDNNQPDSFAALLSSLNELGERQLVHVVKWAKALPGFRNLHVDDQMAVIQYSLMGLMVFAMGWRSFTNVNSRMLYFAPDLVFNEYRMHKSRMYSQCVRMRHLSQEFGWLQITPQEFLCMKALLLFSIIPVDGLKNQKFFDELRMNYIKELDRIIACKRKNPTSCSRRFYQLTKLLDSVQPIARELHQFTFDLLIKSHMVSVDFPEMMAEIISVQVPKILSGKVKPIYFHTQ", "assay": "Cell-based transactivation assay for human androgen receptor mutant W741L", "procedure": "(§1) Cell-Based Transactivation Assay for Human Androgen Receptor Mutant W741L or W741C\n(§2) PC-3 cells (Kaighn et al., Invest. Urol. 17:16-23, 1979) were grown in 5% charcoal-stripped medium and seeded at a concentration of 10000 cells per well in a 96-well plate. They were transiently transfected with a pSG5-derived plasmid (#216201 from Stratagene, La Jolla, Calif., USA) coding for the human androgen receptor W741L or W741C mutant Mara et al., Cancer Research, 63: 149-153, 2003) and an MMTV-Luciferase reporter plasmid based on pGL4.14 14 (#E6691, Promega Corporation, Madison, Wis., USA). The compound to be tested was added at a concentration range varying from 1×10^−9 to 1×10 M together with 1×10^−10 R1881. After 24 h incubation at 37° C. in a 5% CO2 atmosphere, 100 μl of Steady Glo Lysis and Detection reagent (Steady Glo Luciferase assay system E2550 from Promega Corporation. Madison, Wis., USA) were added. Antagonistic activity was determined by measuring Luciferase activity in a Victor 3 Luminometer (PerkinElmer, Waltham, Mass., USA) using the Steady Glo Luciferase Assay (E2550, Promega). IC50 values were calculated for anti-androgenic activity."}, "[2]": {"assay": "Determination of metabolic stability in vitro (calculation of hepatic in vivo blood clearance)", "type": "in vitro ADME", "settings": "pH 7.4, human liver microsomes, calculated from half-life, read-out: calculated hepatic in vivo blood clearance (CL) (converted)", "method": "Determination of Metabolic Stability In Vitro (Including Calculation of Hepatic In Vivo Blood Clearance (CL) and of Maximal Oral Bioavailability (Fmax))\nThe metabolic stability of test compounds in vitro was determined by incubating them at 1 μM with a suspension of human liver microsomes in 100 mM phosphate buffer, pH7.4 (NaH2PO4×H2O+Na2HPO4×2H2O) at a protein concentration of 0.5 mg/ml and at 37° C. The reaction was activated by adding a co-factor mix containing 1.2 mg NADP, 3 IU glucose-6-phosphate dehydrogenase, 14.6 mg glucose-6-phosphate and 4.9 mg MgCl2 in phosphate buffer, pH 7.4. Organic solvent in the incubations was limited to <0.2% dimethylsulfoxide (DMSO) and <1% methanol. During incubation, the microsomal suspensions were continuously shaken and aliquots were taken at 2, 8, 16, 30, 45 and 60 min, to which equal volumes of cold methanol were immediately added. Samples were freezed at −20° C. over night, subsequently centrifuged for 15 minutes at 3000 rpm and the supernatant was analyzed with an Agilent 1200 HPLC-system with LCMS/MS detection.\nThe half-life of a test compound was determined from the concentration-time plot. From the half-life the intrinsic clearances were calculated. Together with the additional parameters liver blood flow, specific liver weight and microsomal protein content the hepatic in vivo blood clearance (CL) and the maximal oral bioavailability (Fmax) were calculated for the different species. The following parameter values were used: Liver blood flow—1.3 l/h/kg human; specific liver weight—21 g/kg human; microsomal protein content—40 mg/g.\nWith the described assay only phase-I metabolism of microsomes is reflected, e.g. typically oxidoreductive reactions by cytochrome P450 enzymes and flavin mono-oxygenases (FMO) and hydrolytic reactions by esterases (esters and amides)."}, "[3]": {"target": "T2, wild-type human androgen receptor (Homo sapiens, UniProt P10275)", "T2 construct": "expressed in transfected cells", "T2 sequence (P10275 1-920)": "T1 sequence (P10275 1-920 W742L) with L742W", "assay": "Cell-based transactivation assay for wild-type human androgen receptor (PC-3 cells, MMTV-luciferase reporter)"}, "LNCaP cells": {"tested_on": "LNCaP cells", "assay": "Proliferation assay with LNCaP cells", "type": "cell-based", "settings": "Homo sapiens, 168 h, R1881 (1×10^−10) stimulated growth, day 7, read-out: inhibition IC50 (LNCaP)", "method": "Proliferation Assay with LNCaP Cells\nLNCaP cells (Horoszewicz et al., in “Models for Prostate Cancer” (ed. G. P. Murphy), Alan R. Liss, New York 1981, p. 115-132; Horoszewicz et al., Cancer Res. 43:1809-1818, 1983) were seeded at 2000 cells/well in 96-well plates in RPMI (F1235, Biochrom AG, Berlin, Germany) without phenol red supplemented with 5% charcoal-stripped serum. After 3 days, the cells were treated with R1881) (1×10^−10) and compound (day 0). Cell number was determined by Alamar Blue (DAL1100, Invitrogen, Life Technologies, Lohne, Germany) staining (2.5 h) at day 0 and day 7. Fluorescence was determined in Victor3 (Excitation 530 nm; emission 590 nm). Stimulated growth was defined as the signal measured at day 7 for cells treated only with R1881. Basal level was defined as the signal measured at day 7 for cells grown without R1881."}, "[4]": {"target": "T3, human androgen receptor W741C mutant (Homo sapiens, UniProt P10275, W742C)", "T3 construct": "expressed in transfected cells; host or cells: PC-3 cells, transient transfection with a pSG5-derived plasmid", "T3 sequence (P10275 1-920 W742C)": "T1 sequence (P10275 1-920 W742L) with L742C", "assay": "Cell-based transactivation assay for human androgen receptor mutant W741C", "procedure": "as §1, §2"}, "VCaP cells": {"tested_on": "VCaP cells", "assay": "Proliferation assay with VCaP cells", "type": "cell-based", "settings": "Homo sapiens, 168 h, R1881 (1×10^−10) stimulated growth, day 7, read-out: Antiproliferative activity VCaP IC50", "method": "Proliferation Assay with VCaP Cells\nVCaP cells ((Korenchuk et al., In Vivo 15: 163-168, 2001)) were seeded at 16 000 cells/well in 96-well plates in DMEM (F0445, Biochrom AG, Berlin, Germany) with phenol red supplemented with 10% charcoal-stripped serum. After 1 day, the cells were treated with R1881 (1×10^−10) and compound (day 0). Cell number was determined by Alamar Blue (DAL1100, Invitrogen, Life Technologies, Lohne, Germany) staining (2.5 h) at day 0 and day 7. Fluorescence was determined in Victor3 (Excitation 530 nm; emission 590 nm). Stimulated growth was defined as the signal measured at day 7 for cells treated only with R1881. Basal level was defined as the signal measured at day 7 for cells grown without R1881."}}, "note": "Residue numbers refer to the chain shown, from its start. pEC50, pIC50: −log10 of the molar value.", "data": [{"smiles": "CC1(C)C(=O)N(c2ccc(C#N)c(C(F)(F)F)c2)C(=S)N1Cc1cnc(-n2ccnc2)nc1", "note": "[Example 17, 4-(3-{[2-(1H-Imidazol-1-yl)pyrimidin-5-yl]methyl}-4,4-dimethyl-5-oxo-2-thioxoimidazolidin-1-yl)-2-(trifluoromethyl)benzonitrile]", "values": [{"measurement": "pIC50", "setting": "[1]", "result": 7.69}, {"measurement": "CLhep predicted at 1 µM", "setting": "[2]", "result": 1.5, "unit": "mL/min/kg"}, {"measurement": "pEC50", "setting": "[3]", "result": "< 5.00"}]}, {"smiles": "Cn1cc(-c2ccc(CN3C(=S)N(c4ccc(C#N)c(C(F)(F)F)c4)C(=O)C3(C)C)cn2)cn1", "note": "[Example 18, 4-(4,4-Dimethyl-3-{[6-(1-methyl-1H-pyrazol-4-yl)pyridin-3-yl]methyl}-5-oxo-2-thioxoimidazolidin-1-yl)-2-(trifluoromethyl)benzonitrile]", "values": [{"measurement": "pIC50", "setting": "[1]", "result": 7.02}, {"measurement": "CLhep predicted at 1 µM", "setting": "[2]", "result": 1.83, "unit": "mL/min/kg"}, {"measurement": "pEC50", "setting": "[3]", "result": 5.02}, {"measurement": "pIC50", "setting": "LNCaP cells", "result": 6.93}]}, {"smiles": "Cc1cn(-c2ccc(CN3C(=S)N(c4ccc(C#N)c(C(F)(F)F)c4)C(=O)C3(C)C)cn2)cn1", "note": "[Example 19, 4-(4,4-Dimethyl-3-{[6-(4-methyl-1H-imidazol-1-yl)pyridin-3-yl]methyl}-5-oxo-2-thioxoimidazolidin-1-yl)-2-(trifluoromethyl)benzonitrile]", "values": [{"measurement": "pIC50", "setting": "[1]", "result": 6.70}, {"measurement": "pIC50", "setting": "[4]", "result": 7.28}, {"measurement": "pEC50", "setting": "[3]", "result": "< 5.00"}, {"measurement": "pIC50", "setting": "LNCaP cells", "result": 7.02}]}, {"smiles": "Cn1nccc1-c1ccc(CN2C(=S)N(c3ccc(C#N)c(C(F)(F)F)c3)C(=O)C2(C)C)cn1", "note": "[Example 20, 4-(4,4-Dimethyl-3-{[6-(1-methyl-1H-pyrazol-5-yl)pyridin-3-yl]methyl}-5-oxo-2-thioxoimidazolidin-1-yl)-2-(trifluoromethyl)benzonitrile]", "values": [{"measurement": "pIC50", "setting": "[1]", "result": 6.63}, {"measurement": "pIC50", "setting": "[4]", "result": 7.00}, {"measurement": "pEC50", "setting": "[3]", "result": "< 5.00"}, {"measurement": "pIC50", "setting": "LNCaP cells", "result": 7.34}]}, {"smiles": "Cc1nc(Cl)cn1-c1ccc(CN2C(=S)N(c3ccc(C#N)c(C(F)(F)F)c3)C(=O)C2(C)C)cn1", "note": "[Example 21, 4-(3-{[6-(4-Chloro-2-methyl-1H-imidazol-1-yl)pyridin-3-yl]methyl}-4,4-dimethyl-5-oxo-2-thioxoimidazolidin-1-yl)-2-(trifluoromethyl)benzonitrile]", "values": [{"measurement": "pIC50", "setting": "[1]", "result": 6.53}, {"measurement": "CLhep predicted at 1 µM", "setting": "[2]", "result": 6.67, "unit": "mL/min/kg"}, {"measurement": "pEC50", "setting": "[3]", "result": "< 5.00"}]}, {"smiles": "CC1(C)C(=O)N(c2ccc(C#N)c(C(F)(F)F)c2)C(=S)N1Cc1ccc(-n2cnc(C(F)(F)F)c2)nc1", "note": "[Example 23, 4-[4,4-Dimethyl-5-oxo-2-thioxo-3-({6-[4-(trifluoromethyl)-1H-imidazol-1-yl]pyridin-3-yl}methyl)imidazolidin-1-yl]-2-(trifluoromethyl)benzonitrile]", "values": [{"measurement": "pIC50", "setting": "[1]", "result": 7.08}, {"measurement": "pIC50", "setting": "[4]", "result": 6.83}, {"measurement": "pEC50", "setting": "[3]", "result": "< 5.00"}, {"measurement": "pIC50", "setting": "VCaP cells", "result": 6.47}, {"measurement": "pIC50", "setting": "LNCaP cells", "result": 6.80}]}, {"smiles": "CC1(C)C(=O)N(c2ccc(C#N)c(C(F)(F)F)c2)C(=S)N1Cc1ccc(-c2cccs2)nc1", "note": "[Example 24, 4-(4,4-Dimethyl-5-oxo-3-{[6-(thien-2-yl)pyridin-3-yl]methyl}-2-thioxoimidazolidin-1-yl)-2-(trifluoromethyl)benzonitrile]", "values": [{"measurement": "pIC50", "setting": "[1]", "result": 6.69}, {"measurement": "CLhep predicted at 1 µM", "setting": "[2]", "result": 6.67, "unit": "mL/min/kg"}, {"measurement": "pEC50", "setting": "[3]", "result": "< 5.00"}]}]}
